Source: ChEMBL document CHEMBL2311402 (J Med Chem, 2013)
Blank lines part the entries; values can stand above or below the compound they belong to.

What was measured:
[1] = target: Tubulin (Homo sapiens) (UniProt P68371+Q9H4B7+P0DPH7+P68366+Q13509+Q71U36+P04350+Q3ZCM7+P07437+P68363+Q9BQE3+Q6PEY2+Q13885+Q9BVA1+Q9BUF5); test: Displacement of [3H]colchicine from tubulin (unknown origin) at 5 uM after 10 mins by DEAE-cellulose filter method; format: protein-complex assay
[2] = target: T1, CYP1A2 (Homo sapiens, UniProt P05177); test: Inhibition of human CYP1A2 at 1 uM; format: ADME
T1 sequence (P05177 whole entry): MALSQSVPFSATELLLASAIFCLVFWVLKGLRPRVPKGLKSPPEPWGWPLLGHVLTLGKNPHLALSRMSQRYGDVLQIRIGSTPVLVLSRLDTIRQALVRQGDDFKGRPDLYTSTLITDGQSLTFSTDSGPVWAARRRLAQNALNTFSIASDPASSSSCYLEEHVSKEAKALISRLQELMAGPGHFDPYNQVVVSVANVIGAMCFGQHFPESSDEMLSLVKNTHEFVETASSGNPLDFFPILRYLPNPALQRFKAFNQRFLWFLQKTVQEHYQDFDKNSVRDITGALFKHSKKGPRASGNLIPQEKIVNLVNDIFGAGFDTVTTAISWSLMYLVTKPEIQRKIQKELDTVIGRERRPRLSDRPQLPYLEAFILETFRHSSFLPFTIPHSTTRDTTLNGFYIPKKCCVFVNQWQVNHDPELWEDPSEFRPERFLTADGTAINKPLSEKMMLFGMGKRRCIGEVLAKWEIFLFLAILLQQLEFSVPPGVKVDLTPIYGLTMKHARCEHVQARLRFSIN

[3] = target: CYP2C9 (Homo sapiens, UniProt P11712); test: Inhibition of human CYP2C9 at 1 uM; format: ADME
[4] = target: CYP2C19 (Homo sapiens, UniProt P33261); test: Inhibition of human CYP2C19 at 1 uM; format: ADME
[5] = target: CYP3A4 (Homo sapiens, UniProt P08684); test: Inhibition of human CYP3A4 at 1 uM; format: ADME
[6] = target: CYP2D6 (Homo sapiens, UniProt P10635); test: Inhibition of human CYP2D6 at 1 uM; format: ADME
[7] = system: HCT-15; test: cells; settings: Homo sapiens, HCT-15, 72 h
Description: Cytotoxicity against human HCT15 cells assessed as growth inhibition after 72 hrs by Celltiter-Glo luminescent assay

[8] = system: HT-29; test: cells; settings: Homo sapiens, HT-29, 48 h
Description: Cytotoxicity against human HT-29 cells assessed as growth inhibition after 48 hrs by MTT assay

[9] = system: HeLa; test: cells; settings: Homo sapiens, 48 h
Description: Cytotoxicity against human HeLa cells assessed as growth inhibition after 48 hrs by MTT assay

[10] = Cytotoxicity against human MESSA/DX5 cells assessed as growth inhibition after 72 hrs by Celltiter-Glo luminescent assay; format: functional, cell-based; settings: MES-SA/Dx5, 72 h
[11] = system: A549; test: cells; settings: Homo sapiens, A549, 48 h
Description: Cytotoxicity against human A549 cells assessed as growth inhibition after 48 hrs by MTT assay

[12] = system: HCT-116; test: cells; settings: Homo sapiens, HCT-116, 72 h
Description: Cytotoxicity against human HCT116 assessed as growth inhibition after 72 hrs by Celltiter-Glo luminescent assay

[13] = system: U-87 MG; test: Induction of apoptosis in human U87MG assessed as reduction in mitochondrial membrane potential at 30 uM after 24 hrs by JC-1 staining-based fluorescence microscopy; format: functional, U-87MG ATCC; parameters: scale not given: the % may be the effect or the level left
[14] = system: NCI/ADR-RES; test: Cytotoxicity against human NCI/ADR-RES cells assessed as growth inhibition by trypan blue exclusion assay; format: functional, cell-based

Sequence of CYP2C9 (P11712 whole entry): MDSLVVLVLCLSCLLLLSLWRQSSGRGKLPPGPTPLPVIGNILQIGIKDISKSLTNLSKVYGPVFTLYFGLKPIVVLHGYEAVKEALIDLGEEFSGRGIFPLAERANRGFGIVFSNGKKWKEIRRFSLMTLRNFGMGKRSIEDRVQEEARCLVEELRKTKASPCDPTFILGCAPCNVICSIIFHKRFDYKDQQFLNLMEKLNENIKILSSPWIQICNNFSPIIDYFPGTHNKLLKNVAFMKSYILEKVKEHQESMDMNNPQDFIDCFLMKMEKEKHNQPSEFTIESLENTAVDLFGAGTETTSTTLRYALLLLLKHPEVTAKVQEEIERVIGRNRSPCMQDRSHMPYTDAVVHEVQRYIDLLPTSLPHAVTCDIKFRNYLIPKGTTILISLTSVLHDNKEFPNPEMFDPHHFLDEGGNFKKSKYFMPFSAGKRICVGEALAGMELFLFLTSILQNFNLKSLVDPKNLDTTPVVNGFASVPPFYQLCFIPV
Sequence of CYP2D6 (P10635 whole entry): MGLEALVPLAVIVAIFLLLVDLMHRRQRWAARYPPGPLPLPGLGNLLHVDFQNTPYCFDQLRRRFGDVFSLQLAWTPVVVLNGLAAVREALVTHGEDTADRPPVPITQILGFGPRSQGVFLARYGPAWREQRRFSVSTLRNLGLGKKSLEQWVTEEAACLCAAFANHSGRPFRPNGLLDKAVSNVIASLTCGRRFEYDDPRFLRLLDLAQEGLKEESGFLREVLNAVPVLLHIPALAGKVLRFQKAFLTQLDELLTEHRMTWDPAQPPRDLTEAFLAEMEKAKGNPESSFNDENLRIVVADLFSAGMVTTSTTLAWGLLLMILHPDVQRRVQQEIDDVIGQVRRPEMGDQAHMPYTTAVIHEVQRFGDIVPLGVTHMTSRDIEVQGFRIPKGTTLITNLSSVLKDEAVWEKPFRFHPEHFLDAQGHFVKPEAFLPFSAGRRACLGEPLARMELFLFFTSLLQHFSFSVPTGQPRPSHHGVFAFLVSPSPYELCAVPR
Sequence of CYP2C19 (P33261 whole entry): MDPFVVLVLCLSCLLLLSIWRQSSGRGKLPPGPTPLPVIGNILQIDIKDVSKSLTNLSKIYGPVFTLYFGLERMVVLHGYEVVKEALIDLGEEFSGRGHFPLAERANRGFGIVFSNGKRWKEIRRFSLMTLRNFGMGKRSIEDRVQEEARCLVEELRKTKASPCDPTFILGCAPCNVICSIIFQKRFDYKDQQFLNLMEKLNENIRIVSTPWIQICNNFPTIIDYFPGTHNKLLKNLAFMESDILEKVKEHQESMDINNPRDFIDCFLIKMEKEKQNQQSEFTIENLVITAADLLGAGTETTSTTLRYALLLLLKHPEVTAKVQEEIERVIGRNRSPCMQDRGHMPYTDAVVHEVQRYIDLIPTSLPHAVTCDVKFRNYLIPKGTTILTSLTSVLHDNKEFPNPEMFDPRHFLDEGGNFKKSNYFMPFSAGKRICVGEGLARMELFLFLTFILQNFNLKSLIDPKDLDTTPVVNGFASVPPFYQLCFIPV
Sequence of CYP3A4 (P08684 whole entry): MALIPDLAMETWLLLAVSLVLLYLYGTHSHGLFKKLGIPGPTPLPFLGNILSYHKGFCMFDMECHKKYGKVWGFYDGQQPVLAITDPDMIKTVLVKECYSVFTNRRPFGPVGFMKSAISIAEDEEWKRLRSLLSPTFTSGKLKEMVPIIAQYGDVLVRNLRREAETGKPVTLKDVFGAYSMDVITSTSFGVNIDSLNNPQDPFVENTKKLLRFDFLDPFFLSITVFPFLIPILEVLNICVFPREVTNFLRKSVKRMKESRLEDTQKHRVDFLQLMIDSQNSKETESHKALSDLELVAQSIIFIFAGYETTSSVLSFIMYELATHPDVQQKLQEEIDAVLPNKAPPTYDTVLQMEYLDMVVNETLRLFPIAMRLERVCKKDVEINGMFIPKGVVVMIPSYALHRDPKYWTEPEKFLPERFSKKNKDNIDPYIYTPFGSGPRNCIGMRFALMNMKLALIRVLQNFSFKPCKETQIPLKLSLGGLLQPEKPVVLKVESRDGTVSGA

Compound: COc1cc(C(=O)c2c(-c3cc[nH]c3)[nH]c3ccccc23)cc(OC)c1OC
inhibition [1]: 71%

Compound: COc1cc(Sc2c(-n3ccnc3)[nH]c3ccccc23)cc(OC)c1OC
inhibition at 1 µM [2]: 22.9%
inhibition at 1 µM [3]: 95.9%
inhibition [1]: 92%
inhibition at 1 µM [4]: 82.5%
inhibition at 1 µM [5]: 94.5%
inhibition at 1 µM [6]: 10.6%

Compound: COc1cc(C(O)c2c(-c3cc[nH]c3)[nH]c3ccccc23)cc(OC)c1OC (stereo not drawn)
inhibition [1]: 70%

Compound: COc1cc(C(=O)c2c(-c3ccoc3)[nH]c3ccccc23)cc(OC)c1OC
inhibition [1]: 77%

Compound: COc1cc(Sc2c(-c3cc[nH]n3)[nH]c3ccccc23)cc(OC)c1OC
inhibition [1]: 78%

Compound: CC[C@]1(O)C[C@@H]2CN(CCc3c([nH]c4ccccc34)[C@@](C(=O)OC)(c3cc4c(cc3OC)N(C)[C@H]3[C@@](O)(C(=O)OC)[C@H](OC(C)=O)[C@]5(CC)C=CCN6CC[C@]43[C@@H]65)C2)C1 [VINBLASTINE]
IC50 [8]: 0.03 µM
IC50 [7]: 0.024 µM
IC50 [9]: 0.01 µM
IC50 [10]: 0.144 µM
IC50 [11]: 0.02 µM
IC50 [12]: 0.003 µM

Compound: N#CC(C#N)=NNc1cccc(Cl)c1 [CARBONYL CYANIDE M-CHLOROPHENYLHYDRAZONE]
Activity [13]: 50%

Compound: COc1cc(Sc2c(-c3ccncc3)[nH]c3ccccc23)cc(OC)c1OC
inhibition at 1 µM [2]: 14.5%
inhibition at 1 µM [3]: 100%
inhibition [1]: 91%
inhibition at 1 µM [4]: 100%
inhibition at 1 µM [5]: 58%
inhibition at 1 µM [6]: 43.1%

Compound: CCC1=C[C@@H]2CN(C1)Cc1c([nH]c3ccccc13)[C@@](C(=O)OC)(c1cc3c(cc1OC)N(C)[C@H]1[C@@](O)(C(=O)OC)[C@H](OC(C)=O)[C@]4(CC)C=CCN5CC[C@]31[C@@H]54)C2 [VINORELBINE]
IC50 [14]: 5 µM

Next, values leading:

inhibition [1]: 81%
Compound: COc1cc(Sc2c(-c3cn[nH]c3)[nH]c3ccccc23)cc(OC)c1OC

inhibition at 1 µM [2]: < 5%
inhibition at 1 µM [3]: 93.1%
inhibition [1]: 83%
inhibition at 1 µM [4]: 83.9%
inhibition at 1 µM [5]: 51.4%
inhibition at 1 µM [6]: < 5%
Compound: COc1cc(Sc2c(-n3cncn3)[nH]c3ccccc23)cc(OC)c1OC

inhibition [1]: 79%
Compound: COc1cc(C(=O)c2c(-c3ccc[nH]3)[nH]c3ccccc23)cc(OC)c1OC

inhibition [1]: 74%
Compound: COc1cc(Sc2c(-c3ccccc3F)[nH]c3ccccc23)cc(OC)c1OC

inhibition [1]: 74%
Compound: COc1cc(Sc2c(-c3ccc(F)cc3)[nH]c3ccccc23)cc(OC)c1OC

inhibition at 1 µM [2]: 23.4%
inhibition at 1 µM [3]: 102%
inhibition [1]: 88%
inhibition at 1 µM [4]: 84.9%
inhibition at 1 µM [5]: 76.4%
Compound: COc1cc(Sc2c(-c3cccnc3)[nH]c3ccccc23)cc(OC)c1OC

inhibition [1]: 75%
Compound: COc1cc(Sc2c(-c3cccc(F)c3)[nH]c3ccccc23)cc(OC)c1OC

inhibition [1]: 72%
Compound: COc1cc(Sc2c(-c3nccs3)[nH]c3ccccc23)cc(OC)c1OC

IC50 [7]: 0.09 µM
Compound: CC(=O)O[C@H]1C(=O)[C@@]2(C)[C@H]([C@H](OC(=O)c3ccccc3)[C@]3(O)C[C@H](OC(=O)[C@H](O)[C@@H](NC(=O)c4ccccc4)c4ccccc4)C(C)=C1C3(C)C)[C@]1(OC(C)=O)CO[C@@H]1C[C@@H]2O [PACLITAXEL]

inhibition [1]: 78%
Compound: COc1cc(C(=O)c2c(-c3ccco3)[nH]c3ccccc23)cc(OC)c1OC
